In this assay the target is full-length ATR (Homo sapiens (Human), UniProt Q13535). Briefly: ATR Inhibition Assay (radioactive-phosphate incorporation). It is filed as biochemical. Particulars: read-out: ATR Ki. The method, then: Compounds were screened for their ability to inhibit ATR kinase using a radioactive-phosphate incorporation assay. Assays were carried out in a mixture of 50 mM Tris/HCl (pH 7.5), 10 mM MgCl2 and 1 mM DTT. Final substrate concentrations were […] [γ-33P]ATP (3mCi 33P ATP/mmol ATP, Perkin Elmer) and 800 μM target peptide ([…]).
Sequence of full-length ATR (Q13535 whole entry): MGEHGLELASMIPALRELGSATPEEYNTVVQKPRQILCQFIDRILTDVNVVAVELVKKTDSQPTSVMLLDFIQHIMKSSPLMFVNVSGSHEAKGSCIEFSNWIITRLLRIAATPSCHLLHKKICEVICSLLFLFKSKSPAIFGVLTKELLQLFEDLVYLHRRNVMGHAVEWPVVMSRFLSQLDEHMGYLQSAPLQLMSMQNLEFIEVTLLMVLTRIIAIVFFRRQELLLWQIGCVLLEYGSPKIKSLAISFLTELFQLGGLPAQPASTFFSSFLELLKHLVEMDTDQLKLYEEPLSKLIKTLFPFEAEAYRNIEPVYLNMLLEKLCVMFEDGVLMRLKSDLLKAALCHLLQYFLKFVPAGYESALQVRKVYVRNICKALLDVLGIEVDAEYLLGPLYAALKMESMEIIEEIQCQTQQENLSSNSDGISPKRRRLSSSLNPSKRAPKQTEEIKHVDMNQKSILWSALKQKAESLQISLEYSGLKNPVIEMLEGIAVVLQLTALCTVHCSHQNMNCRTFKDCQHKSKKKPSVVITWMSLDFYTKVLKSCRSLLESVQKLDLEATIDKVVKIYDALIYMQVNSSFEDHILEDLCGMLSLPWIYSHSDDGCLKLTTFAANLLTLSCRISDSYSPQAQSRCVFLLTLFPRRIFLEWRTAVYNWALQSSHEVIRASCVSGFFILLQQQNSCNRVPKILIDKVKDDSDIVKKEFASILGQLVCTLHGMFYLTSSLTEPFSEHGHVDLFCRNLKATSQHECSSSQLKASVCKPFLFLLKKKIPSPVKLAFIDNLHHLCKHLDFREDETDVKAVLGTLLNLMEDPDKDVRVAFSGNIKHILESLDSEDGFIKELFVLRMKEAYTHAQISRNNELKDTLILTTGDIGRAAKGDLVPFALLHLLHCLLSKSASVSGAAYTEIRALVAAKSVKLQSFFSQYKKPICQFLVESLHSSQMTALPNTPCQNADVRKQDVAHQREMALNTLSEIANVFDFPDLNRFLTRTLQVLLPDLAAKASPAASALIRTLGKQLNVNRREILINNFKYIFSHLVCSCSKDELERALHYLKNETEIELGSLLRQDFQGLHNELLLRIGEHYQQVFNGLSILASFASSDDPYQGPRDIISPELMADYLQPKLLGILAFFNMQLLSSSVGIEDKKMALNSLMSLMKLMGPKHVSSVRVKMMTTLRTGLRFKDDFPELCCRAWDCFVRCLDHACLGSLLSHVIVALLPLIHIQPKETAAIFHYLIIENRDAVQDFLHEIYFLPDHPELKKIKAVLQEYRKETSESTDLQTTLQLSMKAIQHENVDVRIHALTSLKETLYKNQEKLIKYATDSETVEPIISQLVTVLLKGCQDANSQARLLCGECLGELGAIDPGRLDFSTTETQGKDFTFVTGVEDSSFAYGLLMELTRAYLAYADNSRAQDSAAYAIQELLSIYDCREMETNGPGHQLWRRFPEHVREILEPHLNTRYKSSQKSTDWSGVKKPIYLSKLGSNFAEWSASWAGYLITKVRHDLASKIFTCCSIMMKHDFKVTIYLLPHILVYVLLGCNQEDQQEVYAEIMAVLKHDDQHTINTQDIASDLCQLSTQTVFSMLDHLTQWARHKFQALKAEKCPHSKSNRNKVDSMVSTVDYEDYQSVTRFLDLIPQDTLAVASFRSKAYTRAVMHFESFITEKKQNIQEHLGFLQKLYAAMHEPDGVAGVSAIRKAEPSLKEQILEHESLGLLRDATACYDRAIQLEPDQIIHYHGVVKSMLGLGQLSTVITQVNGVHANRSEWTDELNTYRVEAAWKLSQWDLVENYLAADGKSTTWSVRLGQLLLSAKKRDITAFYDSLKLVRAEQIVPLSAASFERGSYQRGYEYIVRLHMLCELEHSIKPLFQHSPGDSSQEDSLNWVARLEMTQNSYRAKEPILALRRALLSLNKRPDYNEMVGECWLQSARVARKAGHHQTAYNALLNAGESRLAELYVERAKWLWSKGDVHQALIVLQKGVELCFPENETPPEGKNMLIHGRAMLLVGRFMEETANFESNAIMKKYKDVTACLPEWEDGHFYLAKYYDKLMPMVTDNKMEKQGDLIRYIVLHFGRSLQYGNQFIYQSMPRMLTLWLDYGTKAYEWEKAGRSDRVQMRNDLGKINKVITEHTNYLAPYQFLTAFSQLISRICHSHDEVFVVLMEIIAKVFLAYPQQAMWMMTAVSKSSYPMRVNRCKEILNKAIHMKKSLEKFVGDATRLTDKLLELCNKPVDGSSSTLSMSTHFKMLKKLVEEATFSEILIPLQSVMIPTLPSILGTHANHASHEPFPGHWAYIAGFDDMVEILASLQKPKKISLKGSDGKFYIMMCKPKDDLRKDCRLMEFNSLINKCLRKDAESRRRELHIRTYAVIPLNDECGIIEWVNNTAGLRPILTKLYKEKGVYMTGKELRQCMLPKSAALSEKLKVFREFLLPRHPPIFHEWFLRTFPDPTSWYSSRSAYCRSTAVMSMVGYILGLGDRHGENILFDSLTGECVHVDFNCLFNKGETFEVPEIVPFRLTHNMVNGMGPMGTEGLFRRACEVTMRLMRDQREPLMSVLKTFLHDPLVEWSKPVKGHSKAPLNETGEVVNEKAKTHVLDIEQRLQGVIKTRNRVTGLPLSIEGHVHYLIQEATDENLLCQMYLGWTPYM
Assays were carried out at 25° C. in the presence of 5 nM full-length ATR. An assay stock buffer solution was prepared containing all of the reagents listed above, with the exception of ATP and the test compound of interest. […] The plate was pre-incubated for 10 minutes at 25° C. and the reaction initiated by addition of 15 μL [γ-33P]ATP (final concentration 10 μM).
The reaction was stopped after […] by the addition of 30 μL 0.1M phosphoric acid containing 2 mM ATP. A multiscreen phosphocellulose filter 96-well plate (Millipore, Cat no. MAPHN0B50) was pretreated with 100 μL 0.2M phosphoric acid prior to the addition of 45 μL of the stopped assay mixture. […] After drying, 100 μL Optiphase ‘SuperMix’ liquid scintillation cocktail (Perkin Elmer) was added to the well prior to scintillation counting (1450 Microbeta Liquid Scintillation Counter, Wallac).
After removing mean background values for all of the data points, Ki(app) data were calculated from non-linear regression analysis of the initial rate data using the Prism software package (GraphPad Prism version 3.0cx for Macintosh, GraphPad Software, San Diego Calif., USA).

For `CNCc1ccc(-c2nnc(-c3nc(-c4ccc(S(=O)(=O)C(C)C)cc4Cl)cnc3N)o2)cc1` [IA-316, 5-(2-chloro-4-isopropylsulfonyl-phenyl)-3-[5-[4-(methylaminomethyl)phenyl]-1,3,4-oxadiazol-2-yl]pyrazin-2-amine], the Ki is at most 10 nM. In the case of `CN(C)C(=O)c1ccc(-c2cnc(N)c(-c3nc4ccccc4[nH]3)n2)cc1` [Compound I-124, 4-(5-amino-6-(1H-benzo[d]imidazol-2-yl)pyrazin-2-yl)-N,N-dimethylbenzamide], the Ki fell in the range of 10 to 100 nM.

With `COc1ccc(NC(C)=O)cc1NC(=O)c1nc(-c2cccnc2)cnc1N` [Compound I-100, 3-amino-N-(5-ethanamido-2-methoxyphenyl)-6-(pyridin-3-yl)pyrazine-2-carboxamide], the Ki was 100 to 5000 nM.

Regarding `CC(C)S(=O)(=O)c1ccc(-c2cnc(N)c(-c3nnc(C(=O)NC4CCCCC4N)o3)n2)cc1` (stereo not shown) [IA-81, N-(2-aminocyclohexyl)-5-[3-amino-6-(4-isopropylsulfonylphenyl)pyrazin-2-yl]-1,3,4-oxadiazole-2-carboxamide], the Ki is 100 to 5000 nM. On to `Nc1ncc(-c2ccc(C(=O)N3CCCNCC3)cc2)nc1C(=O)Nc1nc2ccccc2o1` [Compound V-5], for which the Ki was in the range of 10 to 100 nM. For `N#Cc1cc(C(=O)N2CCCNCC2)ccc1-c1cnc(N)c(-c2nnc(-c3ccccc3)s2)n1` [IVA-2, 2-[5-amino-6-(5-phenyl-1,3,4-thiadiazol-2-yl)pyrazin-2-yl]-5-(1,4-diazepane-1-carbonyl)benzonitrile], the Ki is at most 10 nM. For the molecule `Nc1ncc(-c2ccccc2Br)nc1-c1nnc(-c2ccccc2)o1` [IA-176, 5-(2-bromophenyl)-3-(5-phenyl-1,3,4-oxadiazol-2-yl)pyrazin-2-amine], the Ki is 100 to 5000 nM. With `Nc1ncc(-c2ccc(C(=O)N3CCCNCC3)cc2)nc1C(=O)Nc1ccccc1` [Compound I-43, 6-(4-(1,4-diazepane-1-carbonyl)phenyl)-3-amino-N-phenylpyrazine-2-carboxamide], the Ki fell in the range of 10 to 100 nM.

`Nc1ncc(-c2ccc(C(=O)N3CCCOCC3)cc2)nc1-c1nnc(-c2ccccc2)o1` [IA-15]: the inhibitory constant (Ki) was at most 10 nM. In the case of `Nc1ncc(-c2ccc(C(=O)NCC3CCOCC3)cc2)nc1C(=O)Nc1ccccc1` [Compound I-69, 3-amino-N-phenyl-6-(4-((tetrahydro-2H-pyran-4-yl)methylcarbamoyl)phenyl)pyrazine-2-carboxamide], the Ki is 100 to 5000 nM. The result for `COc1ccc(OC)c(NC(=O)c2nc(-c3cccnc3)cnc2N)c1` [Compound I-107, 3-amino-N-(2,5-dimethoxyphenyl)-6-(pyridin-3-yl)pyrazine-2-carboxamide] reads 10 to 100 nM; that for `N#Cc1ccc(-c2cnc(N)c(-c3nc4ccccc4[nH]3)n2)cc1` [Compound I-129, 4-(5-amino-6-(1H-benzo[d]imidazol-2-yl)pyrazin-2-yl)benzonitrile], 10 to 100 nM; that for `COc1ccccc1NC(=O)c1nc(-c2ccc(C(=O)N(C)C)cc2)cnc1N` [Compound I-28, 3-amino-6-(4-(dimethylcarbamoyl)phenyl)-N-(2-methoxyphenyl) pyrazine-2-carboxamide], at most 10 nM. The result for `CN(C)C(=O)c1ccc(-c2cnc(N)c(-c3nnc(N4CCC4)o3)n2)cc1` [IA-192, 4-[5-amino-6-[5-(azetidin-1-yl)-1,3,4-oxadiazol-2-yl]pyrazin-2-yl]-N,N-dimethyl-benzamide] reads 100 to 5000 nM. For the molecule `CN(C)C(=O)c1ccc(-c2cnc(N)c(-c3nnc(-c4ccccc4)o3)n2)c(C=CF)c1` [IA-148, 4-[5-amino-6-(5-phenyl-1,3,4-oxadiazol-2-yl)pyrazin-2-yl]-3-(2-fluorovinyl)-N,N-dimethyl-benzamide], the Ki is 100 to 5000 nM. On to `COC(=O)c1ccc2nc(-c3nc(-c4ccc(S(C)(=O)=O)cc4)cnc3N)[nH]c2c1` [Compound I-116, methyl 2-(3-amino-6-(4-(methylsulfonyl)phenyl)pyrazin-2-yl)-1H-benzo[d]imidazole-6-carboxylate], for which the Ki is 100 to 5000 nM.

By Ki is commonly meant a measure of affinity in units of concentration, obtained from inhibition or displacement.

The values above are taken from patent publication US10479784B2, “Substituted pyrazin-2-amines as inhibitors of ATR kinase” (Vertex Pharmaceuticals Incorporated, priority 2008, dated 2019).
